Columns and labels:
Format in all cases: cell-based
Salmonella choleraesuis [1] = assay: MBEC device biofilm photodynamic killing (Example 1); parameters: key to Killing of Salmonella cholerasuis biofilm (eradication or growth): “−” = biofilm eradication at the mentioned conditions (concentration, exposure time and Light source); “+” = biofilm growth; conditions: for Killing of Salmonella cholerasuis biofilm (eradication or growth): 16 Hours exposure; for effective as photodynamic agent in killing biofilm organisms: Salmonella choleraesuis and Staphylococcus aureus biofilm, summary of Table 1
Text: (§1) Test microorganisms included Salmonella choleraesuis, Staphylococcus aureus, foodborne pathogens of humans. Test Compounds included Methylene blue, Hemoglobin (blood product), Hemin (blood product), Protoporphyrin (blood product), Annatto Extract (15% Norbixin), beet juice, Canthaxanthin (10%), Beta-carotene (1%), Purple carmine 50%, Carmine lake 60%, Black Carrot extract, Tomato lycopene (5%), sodium copper chlorophyllin, grape skin extract, paprika oleoresin, riboflavin, saffron, titanium dioxide, FD&C blue No1., turmeric oleoresin, FD&C blue No. 2, FD&C Green No. 3, FD&C Red No. 2 (Amaranth), FD&C Red No. 40, FD&C Yellow No. 5, and FD&C Yellow No. 6. Compounds were prepared as 1%, 0.1%, 0.01%, by weight, dissolved in water.
(§2) The light source was a full spectrum fluorescent light or LED light and the contact time was 1 and 16 hours. The study temperature was 37° C.
(§3) Approximately 10^6 organisms in 150 uL Cation Adjusted Mueller Hinton Broth (CAMHB) were placed in each of the wells of a 96 peg MBEC device. The lid of the 96 peg MBEC device was placed on the bottom plate containing organism. The device was placed on a shaker, set to 110 rpm, and incubated at 37° C. for 24 hours to produce biofilms.
(§4) The challenge plates were set up using a sterile 96-well microtitre plate using aseptic techniques in the following manner (one organism per plate, per light exposure time, per light source). Test solutions (200 uL) were placed into each well. The lid was transferred to the challenge plate and exposed to the various light sources for the prescribed exposure times (16 hours). Following the treatment, the pegs were transferred to the recovery media (“recovery plate”) then wrapped in tin foil and incubated at 37° C. for 18 to 24 hours. The recovery plate(s) was wrapped in tin foil, incubated at 37° C. for 24 hours and read visually and by a plate reader, set to an optical density measurement of 630 nm, to determine Minimum Biofilm Eradication Concentration (MBEC) by looking at growth or no growth.

Staphylococcus aureus [2] = assay: as above; parameters: key to Killing of Staph aureus biofilm (eradication or growth): “−” = biofilm eradication at the mentioned conditions (concentration, exposure time and Light source); “+” = biofilm growth; conditions: for Killing of Staph aureus biofilm (eradication or growth): 16 Hours exposure
Text: as §1, §2, §3, §4

E. coli 0157H7 = assay: Photocatalytic food dyes Log10 counts (Example 2)
Text: as §1, §2, §3, §4
(§5) The test was conducted as shown in Example 1, but using Hemin (blood product), Protoporphyrin (blood product), Annatto Extract, and Turmeric. The group of tests organism also included E. Coli 0157H7.

Salmonella choleraesuis [3] = assay: Photocatalytic food dyes Log10 counts (Example 2); conditions: S. choleraesuis, Control 7.28
Text: as §1, §2, §3, §4, §5

Staphylococcus aureus [4] = assay: Photocatalytic food dyes Log10 counts (Example 2); conditions: Staph. aureus
Text: as §1, §2, §3, §4, §5

[5] = Fluorescent Light 16 hours, 0.01%, Control 6.51
[6] = Fluorescent Light 16 hours, 0.1%, Control 6.51
[7] = Fluorescent Light 16 hours, 1%, Control 6.51
[8] = LED Light 16 hours, 0.01%, Control 6.36
[9] = LED Light 16 hours, 0.1%, Control 6.36
[10] = LED Light 16 hours, 1%, Control 6.36
[11] = Fluorescent Light 16 hours, 0.01%
[12] = Fluorescent Light 16 hours, 0.1%
[13] = Fluorescent Light 16 hours, 0.01%, Control 6.48
[14] = Fluorescent Light 16 hours, 0.1%, Control 6.48
[15] = Fluorescent Light 16 hours, 1%, Control 6.48
[16] = LED Light 16 hours, 0.01%, Control 6.95
[17] = LED Light 16 hours, 0.1%, Control 6.95
[18] = LED Light 16 hours, 1%, Control 6.95

| Molecule | Killing of Salmonella cholerasuis biofilm (eradication or growth) (Salmonella choleraesuis [1]; Fluorescent Light, 0.01%) | Killing of Salmonella cholerasuis biofilm (eradication or growth) (Salmonella choleraesuis [1]; Fluorescent Light, 0.1%) | Killing of Salmonella cholerasuis biofilm (eradication or growth) (Salmonella choleraesuis [1]; Fluorescent Light, 1%) | Killing of Salmonella cholerasuis biofilm (eradication or growth) (Salmonella choleraesuis [1]; LED Light, 0.01%) | Killing of Salmonella cholerasuis biofilm (eradication or growth) (Salmonella choleraesuis [1]; LED Light, 0.1%) | Killing of Salmonella cholerasuis biofilm (eradication or growth) (Salmonella choleraesuis [1]; LED Light, 1%) | Killing of Staph aureus biofilm (eradication or growth) (Staphylococcus aureus [2]; Fluorescent Light, 0.01%) | Killing of Staph aureus biofilm (eradication or growth) (Staphylococcus aureus [2]; Fluorescent Light, 0.1%) | Killing of Staph aureus biofilm (eradication or growth) (Staphylococcus aureus [2]; Fluorescent Light, 1%) | Killing of Staph aureus biofilm (eradication or growth) (Staphylococcus aureus [2]; LED Light, 0.01%) | Killing of Staph aureus biofilm (eradication or growth) (Staphylococcus aureus [2]; LED Light, 0.1%) | Killing of Staph aureus biofilm (eradication or growth) (Staphylococcus aureus [2]; LED Light, 1%) | Average Log10 counts (E. coli 0157H7; [5]) [Log10] | Average Log10 counts (E. coli 0157H7; [6]) [Log10] | Average Log10 counts (E. coli 0157H7; [7]) [Log10] | Average Log10 counts (E. coli 0157H7; [8]) [Log10] | Average Log10 counts (E. coli 0157H7; [9]) [Log10] | Average Log10 counts (E. coli 0157H7; [10]) [Log10] | Average Log10 counts (Salmonella choleraesuis [3]; [11]) [Log10] | Average Log10 counts (Salmonella choleraesuis [3]; [12]) [Log10] | also measured |
| --- | --- | --- | --- | --- | --- | --- | --- | --- | --- | --- | --- | --- | --- | --- | --- | --- | --- | --- | --- | --- | --- |
| CN(C)c1ccc2nc3ccc(=[N+](C)C)cc-3sc2c1 [Methylene blue, reference compound] | − | − | − | − | − | − | − | − | − | − | − | − | 3.41 | 0.79 | 0.35 | 1.77 | 0.00 | 0.00 | 0.00 | 0.00 | Average Log10 counts (Salmonella choleraesuis [3]; Fluorescent Light 16 hours, 1%): 0.00 Log10; Average Log10 counts (Salmonella choleraesuis [3]; LED Light 16 hours, 0.01%): 2.27 Log10; Average Log10 counts (Salmonella choleraesuis [3]; LED Light 16 hours, 0.1%): 0.00 Log10; Average Log10 counts (Salmonella choleraesuis [3]; LED Light 16 hours, 1%): 3.20 Log10; Average Log10 counts (Staphylococcus aureus [4]; [13]): 3.20 Log10; Average Log10 counts (Staphylococcus aureus [4]; [14]): 0.00 Log10; Average Log10 counts (Staphylococcus aureus [4]; [15]): 0.00 Log10; Average Log10 counts (Staphylococcus aureus [4]; [16]): 5.71 Log10; Average Log10 counts (Staphylococcus aureus [4]; [17]): 5.40 Log10; Average Log10 counts (Staphylococcus aureus [4]; [18]): 4.84 Log10 |
| CC1=C(/C=C/C(C)=C/C=C/C(C)=C/C=C/C=C(C)/C=C/C=C(C)/C=C/C2=C(C)CCCC2(C)C)C(C)(C)CCC1 [β-Carotene, Beta-carotene] | + | + | + | + | + | + | + | + | + | + | + | + |  |  |  |  |  |  |  |  |  |
| Hemoglobin: Hemoglobin (blood product) | − | − | − | + | + | + | + | + | + | + | + | + |  |  |  |  |  |  |  |  | effective as photodynamic agent in killing biofilm organisms (Salmonella choleraesuis [1]): Effective |
| Protoporphyrin | − | − | − | + | + | − | + | + | + | + | + | + | 0.44 | 0.57 | 0.00 | 4.04 | 3.48 | 3.60 | 2.10 | 2.33 | concentration at which useful against Salmonella (Salmonella choleraesuis [1]; LED light): greater than 1%; effective as photodynamic agent in killing biofilm organisms (Salmonella choleraesuis [1]): Effective; concentration at which useful against Salmonella (Salmonella choleraesuis [1]; fluorescent light): greater than 0.01%; concentration at which useful against Staph A (Staphylococcus aureus [2]; fluorescent light): greater than 0.1%; Average Log10 counts (Salmonella choleraesuis [3]; Fluorescent Light 16 hours, 1%): 3.32 Log10; Average Log10 counts (Salmonella choleraesuis [3]; LED Light 16 hours, 0.01%): 3.40 Log10; Average Log10 counts (Salmonella choleraesuis [3]; LED Light 16 hours, 0.1%): 3.67 Log10; Average Log10 counts (Salmonella choleraesuis [3]; LED Light 16 hours, 1%): 2.92 Log10; Average Log10 counts (Staphylococcus aureus [4]; [13]): 0.00 Log10; Average Log10 counts (Staphylococcus aureus [4]; [14]): 0.00 Log10; Average Log10 counts (Staphylococcus aureus [4]; [15]): 0.00 Log10; Average Log10 counts (Staphylococcus aureus [4]; [16]): 1.29 Log10; Average Log10 counts (Staphylococcus aureus [4]; [17]): 0.50 Log10; Average Log10 counts (Staphylococcus aureus [4]; [18]): 3.10 Log10 |
| sodium copper chlorophyllin | + | + | + | + | + | + | + | + | + | + | + | + |  |  |  |  |  |  |  |  |  |
